# According to patent US20240279207A1, “SUBSTITUTED ACYL SULFONAMIDES FOR TREATING CANCER” (The Broad Institute, Inc., priority 2020, published 2024):
# pIC50: −log10 of the molar value.
# Legend:
# [1] = target: T1, Recombinant human His-tagged Kat6a protein (amino acids 194-810) (Homo sapiens, UniProt Q92794); experiment: Kat6a activity assay (TR-FRET, acetylation of Histone-H4-derived peptide); assay type: biochemical; settings: 60 mins at 22° C., 220 nM H4 peptide, 600 nM Acetyl Coenzyme A, read-out: KAT6A - DPF/HAT domain IC50 [mol/l] (arithmetic mean)
# T1 construct: Kat6a protein (amino acids 194-810); His
# [2] = tested on: ESR1 transcription in MVLN cells; experiment: MVLN reporter assay: repression of ESR1 transcription (luciferase signal); assay type: cell-based; settings: Homo sapiens, MVLN, 24 h, luciferase signal after 24 h, read-out: MVLN reporter assay, IC50 [M] (arithmetic mean)
# In short: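 To control for cell loss, Alamar Blue (2 h, 530/590 nm) precedes the 24 h luciferase measurement. The reporter is an ERE from the Xenopus vitellogenin A2 gene driving luciferase, stably transfected into ER-expressing MVLN cells; duplicate samples.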
# T1 sequence (Q92794 194-810): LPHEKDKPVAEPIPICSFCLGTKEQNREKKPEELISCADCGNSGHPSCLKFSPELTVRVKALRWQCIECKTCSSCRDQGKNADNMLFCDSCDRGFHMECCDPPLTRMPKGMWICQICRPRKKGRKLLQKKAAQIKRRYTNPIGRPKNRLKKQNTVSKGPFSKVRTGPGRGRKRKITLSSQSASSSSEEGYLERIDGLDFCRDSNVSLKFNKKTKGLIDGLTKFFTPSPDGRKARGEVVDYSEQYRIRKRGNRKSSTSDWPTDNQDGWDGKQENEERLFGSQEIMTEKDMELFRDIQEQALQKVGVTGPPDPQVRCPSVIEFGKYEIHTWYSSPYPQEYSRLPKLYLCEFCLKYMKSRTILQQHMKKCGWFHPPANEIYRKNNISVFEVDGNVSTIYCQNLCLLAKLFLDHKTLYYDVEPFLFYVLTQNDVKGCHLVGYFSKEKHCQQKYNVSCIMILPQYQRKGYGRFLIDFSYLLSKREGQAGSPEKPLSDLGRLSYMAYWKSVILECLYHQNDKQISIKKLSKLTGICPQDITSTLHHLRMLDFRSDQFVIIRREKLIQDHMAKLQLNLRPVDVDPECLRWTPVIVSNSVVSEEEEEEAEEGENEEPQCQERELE
Structure (SMILES),pIC50 [1],IC50 [2] [M]
"CCc1noc(-c2ccccc2S(=O)(=O)NC(=O)c2cc3c(F)cc(N4CCC4)cc3o2)n1 [Example 44, 6-(Azetidin-1-yl)-N-[2-(3-ethyl-1,2,4-oxadiazol-5-yl)benzene-1-sulfonyl]-4-fluoro-1-benzofuran-2-carboxamide]",6.72,1.01e-06
"COc1c(S(=O)(=O)NC(=O)c2cc3c(F)cc(N4CCC4)cc3o2)ccc(Cl)c1Cl [Example 183, 6-(Azetidin-1-yl)-N-(3,4-dichloro-2-methoxybenzene-1-sulfonyl)-4-fluoro-1-benzofuran-2-carboxamide]",7.08,9.24e-07
"COc1ccc(Cl)c(C)c1S(=O)(=O)NC(=O)c1cc2c(F)cc(N3CCC3)cc2o1 [Example 27, 6-(Azetidin-1-yl)-N-(3-chloro-6-methoxy-2-methylbenzene-1-sulfonyl)-4-fluoro-1-benzofuran-2-carboxamide]",7.30,3.54e-07
"Cc1cc(S(=O)(=O)NC(=O)c2cc3c(F)cc(N4CCC4)cc3o2)c2ncccc2c1 [Example 175, 6-(Azetidin-1-yl)-4-fluoro-N-(6-methylquinoline-8-sulfonyl)-1-benzofuran-2-carboxamide]",7.35,1.65e-07
"COc1ccc(N2CCOCC2)cc1S(=O)(=O)NC(=O)c1cc2c(F)cc(N3CCC3)cc2o1 [Example 137, 6-(Azetidin-1-yl)-4-fluoro-N-[2-methoxy-5-(morpholin-4-yl)benzene-1-sulfonyl]-1-benzofuran-2-carboxamide]",7.58,1.74e-07
"O=C(NS(=O)(=O)c1cccc2c1CCCC2)c1cc2c(F)cc(N3CC(F)C3)cc2o1 [Example 108, 4-Fluoro-6-(3-fluoroazetidin-1-yl)-N-(5,6,7,8-tetrahydronaphthalene-1-sulfonyl)-1-benzofuran-2-carboxamide]",7.16,1.29e-07
"COC(=O)CCc1ccccc1S(=O)(=O)NC(=O)c1cc2c(F)cc(N3CCC3)cc2o1 [Example 102, Methyl 3-(2-{[6-(azetidin-1-yl)-4-fluoro-1-benzofuran-2-carbonyl]sulfamoyl}phenyl)propanoate]",6.94,4.07e-06
"Cc1ccc(OC2CCCC2)c(S(=O)(=O)NC(=O)c2cc3c(F)cc(N4CCC4)cc3o2)c1 [Example 9, 6-(Azetidin-1-yl)-N-[2-(cyclopentyloxy)-5-methylbenzene-1-sulfonyl]-4-fluoro-1-benzofuran-2-carboxamide]",7.67,1.34e-07
"CCN(C)C(=O)c1ccccc1S(=O)(=O)NC(=O)c1cc2c(F)cc(N3CCC3)cc2o1 [Example 47, 6-(Azetidin-1-yl)-N-{2-[ethyl(methyl)carbamoyl]benzene-1-sulfonyl}-4-fluoro-1-benzofuran-2-carboxamide]",6.96,1.3e-06
"CN1CCc2c(cccc2S(=O)(=O)NC(=O)c2cc3c(F)cc(N4CC(F)C4)cc3o2)C1 [Example 112, 4-Fluoro-6-(3-fluoroazetidin-1-yl)-N-(2-methyl-1,2,3,4-tetrahydroisoquinoline-5-sulfonyl)-1-benzofuran-2-carboxamide]",5.28,> 2e-05
"O=C(NS(=O)(=O)c1c(F)cccc1NC1CC1)c1cc2c(F)cc(N3CCC3)cc2o1 [Example 50, 6-(Azetidin-1-yl)-N-[2-(cyclopropylamino)-6-fluorobenzene-1-sulfonyl]-4-fluoro-1-benzofuran-2-carboxamide]",7.01,1.42e-06
"CN(C)C(=O)c1cccnc1S(=O)(=O)NC(=O)c1cc2c(F)cc(N3CCC3)cc2o1 [Example 95, 2-{[6-(Azetidin-1-yl)-4-fluoro-1-benzofuran-2-carbonyl]sulfamoyl}-N,N-dimethylpyridine-3-carboxamide]",5.82,> 2e-05
"COC(=O)Cc1ccc2c(S(=O)(=O)NC(=O)c3cc4c(F)cc(N5CCC5)cc4o3)cccc2c1 [Example 57, Methyl (5-{[6-(azetidin-1-yl)-4-fluoro-1-benzofuran-2-carbonyl]sulfamoyl}naphthalen-2-yl)acetate]",6.92,2.5e-06
"NS(=O)(=O)c1cc(OC(=O)c2cc3c(F)cc(N4CCC4)cc3o2)cc2ccccc12 [Example 98, 4-Sulfamoylnaphthalen-2-yl 6-(azetidin-1-yl)-4-fluoro-1-benzofuran-2-carboxylate]",< 4.70,> 2e-05
"CN(C)c1cccc2c(S(=O)(=O)NC(=O)c3cc4c(F)cc(N5CCC5)cc4o3)cccc12 [Example 66, 6-(Azetidin-1-yl)-N-[5-(dimethylamino)naphthalene-1-sulfonyl]-4-fluoro-1-benzofuran-2-carboxamide]",6.87,1e-05
"COc1cc(Br)ccc1S(=O)(=O)NC(=O)c1cc2c(F)cc(N3CCC3)cc2o1 [Example 174, 6-(Azetidin-1-yl)-N-(4-bromo-2-methoxybenzene-1-sulfonyl)-4-fluoro-1-benzofuran-2-carboxamide]",7.58,1.65e-07
"O=C(NS(=O)(=O)c1c(Cl)ccc2c1OC(F)(F)O2)c1cc2c(F)cc(N3CCC3)cc2o1 [Example 142, 6-(Azetidin-1-yl)-N-(5-chloro-2,2-difluoro-2H-1,3-benzodioxole-4-sulfonyl)-4-fluoro-1-benzofuran-2-carboxamide]",6.83,1.2e-06
"O=C(NS(=O)(=O)c1cccc2c1OCCO2)c1cc2c(F)cc(N3CCC3)cc2o1 [Example 172, 6-(Azetidin-1-yl)-N-(2,3-dihydro-1,4-benzodioxine-5-sulfonyl)-4-fluoro-1-benzofuran-2-carboxamide]",7.47,1.35e-07
"CC1(C)Cc2cccc(S(=O)(=O)NC(=O)c3cc4c(F)cc(N5CCC5)cc4o3)c2O1 [Example 21, 6-(Azetidin-1-yl)-N-(2,2-dimethyl-2,3-dihydro-1-benzofuran-7-sulfonyl)-4-fluoro-1-benzofuran-2-carboxamide]",7.26,2.98e-07
"O=C(NS(=O)(=O)c1cnc2ccccn12)c1cc2c(F)cc(N3CCC3)cc2o1 [Example 186, 6-(Azetidin-1-yl)-4-fluoro-N-(imidazo[1,2-a]pyridine-3-sulfonyl)-1-benzofuran-2-carboxamide]",5.79,1.7e-05
"CC(C)Oc1cccc(Cl)c1S(=O)(=O)NC(=O)c1cc2c(F)cc(N3CCC3)cc2o1 [Example 29, 6-(Azetidin-1-yl)-N-{2-chloro-6-[(propan-2-yl)oxy]benzene-1-sulfonyl}-4-fluoro-1-benzofuran-2-carboxamide]",7.30,3.79e-07
"O=C(NS(=O)(=O)c1cc(C(F)(F)F)ccc1NCC(F)F)c1cc2c(F)cc(N3CCC3)cc2o1 [Example 92, 6-(Azetidin-1-yl)-N-{2-[(2,2-difluoroethyl)amino]-5-(trifluoromethyl)benzene-1-sulfonyl}-4-fluoro-1-benzofuran-2-carboxamide]",6.33,> 2e-05
"O=C(NS(=O)(=O)c1cc(C(F)(F)F)cnc1Cl)c1cc2c(F)cc(N3CCC3)cc2o1 [Example 103, 6-(Azetidin-1-yl)-N-[2-chloro-5-(trifluoromethyl)pyridine-3-sulfonyl]-4-fluoro-1-benzofuran-2-carboxamide]",6.21,1.02e-05
